Measurements published in paper PMC5979539 (International Journal of Molecular Sciences, 2018).

B1: PDC-109 (BSP-A1/-A2), main protein of bovine seminal plasma (natural protein, UniProt P02784 26-134, looked up)
chain: DQDEGVSTEPTQDGPAELPEDEECVFPFVYRNRKHFDCTVHGSLFPWCSLDADYVGRWKYCAQRDYAKCVFPFIYGGKKYETCTKIGSMWMSWCSLSPNYDKDRAWKYC
modifications: mixture of the glycosylated (O-linked trisaccharide, Neu5Ac-Hex-HexNAc) and non-glycosylated forms
notes: Native preparation; two closely spaced bands on SDS-PAGE (glycosylated and non-glycosylated forms); The same preparation was both immobilised and flowed over the chip; also called BSP-A2; source: purified from bull seminal plasma (donated by J.J. Calvete)

Columns and labels:
PDC-109 = molecular target: T1, PDC-109 (Bos taurus, UniProt P02784); experiment: SPR binding profile and kinetics of PDC-109 on immobilized neo-glycoprobes; set-up: species or system bovine; details: for derived association (KA) constant / kd / ka: immobilized glycoprobe, PDC-109 6.25 to 100 μM, HBS-P pH 7.4, 25 °C, 1:1 Langmuir model; for kd / ka: 3 to 6 repeat experiments; for ka: 30 μL/min, CV exceeding 50% in particular cases; for binding to PDC-109 in words: immobilized probe, PDC-109 flown over
T1 construct: PDC-109, purified from bull seminal plasma, was kindly donated by J.J. Calvete; tissue gift of J.J. Calvete; host or cells: bull seminal plasma
T1 sequence (P02784 26-134): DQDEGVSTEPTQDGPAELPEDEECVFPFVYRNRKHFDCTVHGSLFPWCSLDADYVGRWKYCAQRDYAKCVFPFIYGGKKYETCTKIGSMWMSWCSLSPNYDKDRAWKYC
Source text: While the lipid selectivity and kinetics of PDC-109 has been characterized in considerable detail, its interaction with carbohydrate epitopes remains largely uncharted, despite its potential role in sperm reservoir formation in the female genital tract. We have therefore performed SPR experiments with PDC-109 and the most relevant mammalian glycotopes, particularly those containing Fuc epitopes. Once SPR sensor chips were functionalized with the different synthetic glycoprobes and evaluated with specific lectins (Section 2.1.2) they were used to characterize both qualitatively and quantitatively the interaction of PDC-109. For kinetic analysis, several concentrations in the 6.25 to 100 μM range were analyzed and a 1:1 Langmuir binding model was chosen for sensorgram fitting.
Data dispersion was attributable to the unusual sensorgrams observed, reflecting a complex binding event, particularly in the association phase of PDC-109. […] In a conventional, straightforward binding event, the response—i.e., the signal rise over time, reflecting protein binding to the sensor surface—reaches a constant value once equilibrium is established, and remains so until the protein solution passed over the sensor chip is replaced with buffer, giving way to the spontaneous dissociation process and subsequent surface regeneration.
Binding experiments were performed at 25 °C and 30 μL/min flow rate. […] Sensor surface was regenerated with a 60 μL-injection of specific carbohydrate (10 mM lac, 500 mM αMe-Man, 0.5 M αMe-Fuc, and 10 mM Sia) followed by a 60 μL-injection of NaCl 1 M.

Con A = Con A (Canavalia ensiformis, UniProt P02866); details: for ka1: SPR BIAcore 3000, glycoprobe immobilized on CM5 chip, HBS-P pH 7.4 + CaCl2 5 mM, MnCl2 1 mM; for ka1 / kd1 / ka2 / kd2: Con A 2.5-80 nM, bivalent model; for ka1 / kd1: first binding event; for KA1 / kd1 / ka2 / kd2: SPR; for KA1: affinity constant of first event, KA1 = ka1/kd1; for kd1 / ka2 / kd2: immobilized glycoprobe; for ka2 / kd2: second binding event
Method: Subsequently, glycoprobes displaying mannobioses only differing in their glycosidic linkage (Man-α1,2-Man, Man-α1,3-Man and Man-α1,6-Man) were immobilized on a sensor chip and their interaction with concanavalin A (Con A) was studied. Con A is a relatively complex lectin, organized as a β-barrel-like tetramer at pH > 7, each dimer subunit (D2 symmetry) with two CRDs situated on opposing faces of the protein. Sensorgrams of different Con A concentrations were recorded and kinetic constants determined by simultaneously fitting the experimental curves to a bivalent kinetic model (Figure 1). This model allows the first and second binding events to be separately described by two sets of rate constants (Table 2).
All SPR experiments were performed in a BIAcore 3000 instrument (GE Healthcare, Uppsala, Sweden) using carboxymethyl-functionalized CM5 or C1 sensor chips and HBS-P (0.01 M HEPES pH 7.4; 0.15 M NaCl; 0.005% v/v surfactant P20) as running buffer, supplemented when necessary with CaCl2 (5 mM) and MnCl2 (1 mM) or other competitive reagents/adjuvants such as bovine serum albumin (BSA), carboxymethyldextran (CMD) or polivinylpirrolidone (PVP). SPR sensorgram analysis and curve fitting were done with the BIAevaluation 4.1.1 sofware package (GE Healthcare, Uppsala, Sweden). In all experiments, specific binding responses were obtained by subtracting from each channel the reference channel response. Moreover, in most cases a double referencing was applied (i.e., reference Fc1 channel plus an internal reference standard, namely buffer injection subtraction).
For all immobilizations, the carboxyl functionalities of the CM5 (or C1) sensor chip surfaces were activated by injecting a mixture of 0.05 M NHS and 0.2 M EDC (1:1 v/v; 50 µL) at 5 µL/min. Then, glycopeptide solutions were passed at 1–2 mg/mL in 10 mM NaOAc for approximately 12 min over the activated surface. For immobilization, pH 4 or pH 6 conditions were used, as required. In the specific case of PDC-109, protein solution was passed at 0.05 µg/µL in 10 mM NaOAc pH 4 over the activated surface. Afterwards, unreacted groups on all chip surfaces were blocked with ethanolamine-HCl (1 M; pH 8.5; 60 µL) or H2O (60 µL). The difference, in resonance units (RU), between readings after surface activation and final response was converted into amount of immobilized glycopeptide (0.981 RU~1 pg/mm^2 for glycopeptides, 1 RU = 1 pg/mm^2 for proteins; see legend Table 6).
All kinetic measurements were carried out by running a manually programmed sequence of binding experiments using several protein range concentrations and two flow rates. Regeneration of the sensor surface was accomplished in a specific-manner by injecting the complementary carbohydrate (10 mM lac, 100–500 mM αMe-Man, 0.5 M αMe-Fuc or L-Fuc, 0.5 M GlcNAc, 0.5 M Glc, and 10 mM Sia). Alternatively, other procedures such as glycoprotein solutions (e.g., fetuin at 2–5 g/L), low pH-buffers (e.g., 10 mM glycine pH 1.5–2.5), high salt (e.g., 1 M NaCl), high pH or specific chemicals were also used to break the interaction.
For the evaluation of the sensor chips, binding experiments and kinetic studies were carried out with the various glycoprobes and specific well-characterized lectins (ECA, Con A, LTA, UEA-I, MAA, and SNA). Several concentrations of each lectin were prepared by serial 2/3-fold dilutions of the most concentrated sample in running buffer supplemented with CaCl2 (5 mM) and MnCl2 (1 mM). Thus, concentrations varied from 66 nM to 2.5 µM for ECA; from 2.5 to 80 nM for Con A; from 31.25 nM to 1 µM for LTA and UEA-I; from 250 nM to 1.9 µM for MAA and from 74 to 563 nM for SNA. Analyses were performed at 20 µL/min and kinetic studies at 10 and 40 μL/min. After lectin injection, the sample solution was replaced by running buffer and the dissociation phase was monitored for 3–6 min.

SNA = SNA (Sambucus nigra, UniProt Q41358)
Chain of SNA (Q41358 309-570 limits assumed): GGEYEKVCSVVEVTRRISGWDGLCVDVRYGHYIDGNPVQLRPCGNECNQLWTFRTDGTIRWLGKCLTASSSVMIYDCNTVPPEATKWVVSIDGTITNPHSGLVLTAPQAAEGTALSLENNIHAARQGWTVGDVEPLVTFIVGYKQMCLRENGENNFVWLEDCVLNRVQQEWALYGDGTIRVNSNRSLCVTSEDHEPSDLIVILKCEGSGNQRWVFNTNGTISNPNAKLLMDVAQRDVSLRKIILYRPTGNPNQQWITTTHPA
Chain of SNA (Q41358 29-290 partner limits assumed): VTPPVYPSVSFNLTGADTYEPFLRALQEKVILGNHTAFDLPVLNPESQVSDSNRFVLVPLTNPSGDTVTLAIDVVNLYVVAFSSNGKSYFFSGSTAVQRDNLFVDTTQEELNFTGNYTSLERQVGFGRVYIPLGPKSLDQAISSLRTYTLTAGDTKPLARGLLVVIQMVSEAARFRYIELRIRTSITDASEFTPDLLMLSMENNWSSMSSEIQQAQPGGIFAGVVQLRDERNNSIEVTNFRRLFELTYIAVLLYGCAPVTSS

MAA = experiment: SPR binding and kinetics of MAA on immobilized sialic acid glycoprobes; set-up: species or system Maackia amurensis
[1] = molecular target: the molecule itself; experiment: SPR; PDC-109 immobilised on a CM5 chip (1645 RU, 10 mM NaOAc pH 4); 50 µM PDC-109 passed over at 20 µL/min; regeneration with 1 M NaCl; two replicates

| Molecule | derived association (KA) constant (PDC-109) [M⁻¹] | kd (PDC-109) [s⁻¹] | ka (PDC-109) [M⁻¹ s⁻¹] | other results |
| --- | --- | --- | --- | --- |
| Fuc-α1,6-GlcNAc-Aoa(m)-GFKKG [neo-glycoprobe: Fuc-α1,6-GlcNAc oxime-ligated to the peptide module N[Me]-O-Aoa-GFKKG] | 73100 | 0.00345 | 645 | – |
| Gal-β1,6-GlcNAc-Aoa(m)-GFKKG [neo-glycoprobe: Gal-β1,6-GlcNAc oxime-ligated to the peptide module N[Me]-O-Aoa-GFKKG] | 22700 | 0.0208 | 472 | – |
| Gal-β1,4-GlcNAc-Aoa(m)-GFKKG [neo-glycoprobe: Gal-β1,4-GlcNAc oxime-ligated to the peptide module N[Me]-O-Aoa-GFKKG] | 10000 | 0.0086 | 86.2 | – |
| N[Me]-O-Aoa-GFKKG-amide [peptide module for oxime ligation] | – | – | – | binding to PDC-109 in words (PDC-109): undesirable, non-specific binding |
| Man-α1,6-Man-Aoa(m)-GFKKG [neo-glycoprobe: Man-α1,6-Man oxime-ligated to the peptide module N[Me]-O-Aoa-GFKKG] | 23800 | 0.0173 | 410 | ka1 (Con A): 8910 M⁻¹ s⁻¹; KA1 (Con A): 308000 M⁻¹; kd1 (Con A): 0.0289 s⁻¹; ka2 (Con A): 7.15 × 10^−4 RU^−1 s^−1; kd2 (Con A): 0.019 s⁻¹ |
| Neu5Ac-α2,6-Gal-β1,4-GlcNAc-N[Me]-O-Aoa-GFKKG-amide [Neu5Ac-α2,6-Gal-β1,4-GlcNAc-Aoa(m)-GFKKG, neo-glycoprobe: Neu5Ac-α2,6-Gal-β1,4-GlcNAc oxime-ligated to the peptide module N[Me]-O-Aoa-GFKKG] | 166000 | 0.00253 | 1880 | KA (SNA): 6.27 × 10^6 M^−^1; carbohydrate specificity of SNA in words (SNA): marked preference; ka (SNA; pH 7.4): 1.02 × 10^4 M^−^1 s^−^1; binding to PDC-109 in words (PDC-109): favored interaction |
| Man-α1,3-Man-Aoa(m)-GFKKG [neo-glycoprobe: Man-α1,3-Man oxime-ligated to the peptide module N[Me]-O-Aoa-GFKKG] | 87700 | 0.0044 | 386 | ka1 (Con A): 22800 M⁻¹ s⁻¹; KA1 (Con A): 345000 M⁻¹; kd1 (Con A): 0.0661 s⁻¹; ka2 (Con A): 3.78 × 10^−3 RU^−1 s^−1; kd2 (Con A): 0.0629 s⁻¹ |
| Neu5Ac-α2,3/6-Gal-β1,4-Glc-N[Me]-O-Aoa-GFKKG-amide [Neu5Ac-α2,3/6-Gal-β1,4-Glc-Aoa(m)-GFKKG, neo-glycoprobe: Neu5Ac-α2,3/6-Gal-β1,4-Glc oxime-ligated to the peptide module N[Me]-O-Aoa-GFKKG] | 27700 | 0.0081 | 2120 | – |
| Neu5Ac-α2,3-Gal-β1,4-GlcNAc-N[Me]-O-Aoa-GFKKG-amide [Neu5Ac-α2,3-Gal-β1,4-GlcNAc-Aoa(m)-GFKKG, neo-glycoprobe: Neu5Ac-α2,3-Gal-β1,4-GlcNAc oxime-ligated to the peptide module N[Me]-O-Aoa-GFKKG] | 12400 | 0.00477 | 99.9 | carbohydrate specificity of MAA in words (MAA; SPR binding responses on sialic acid glycoprobe chip): recognized only; ka (MAA; SPR, immobilized glycoprobe, MAA 250 nM to 1.9 μM, HBS-P pH 7.4 + CaCl2 5 mM, MnCl2 1 mM, 1:1 Langmuir model): 5.55 × 10^3 M^−^1 s^−^1; KA (MAA; SPR, immobilized glycoprobe, MAA 250 nM to 1.9 μM, 1:1 Langmuir model): 9.12 × 10^5 M^−^1 |
| Fuc-α1,3-GlcNAc-Aoa(m)-GFKKG [neo-glycoprobe: Fuc-α1,3-GlcNAc oxime-ligated to the peptide module N[Me]-O-Aoa-GFKKG] | 237000 | 0.00165 | 763 | – |
| Fuc-α1,4-GlcNAc-Aoa(m)-GFKKG [neo-glycoprobe: Fuc-α1,4-GlcNAc oxime-ligated to the peptide module N[Me]-O-Aoa-GFKKG] | – | 8.83e-05 | 2910 | binding to PDC-109 in words (PDC-109): highest binding affinity |
| Gal-β1,3-GlcNAc-Aoa(m)-GFKKG [neo-glycoprobe: Gal-β1,3-GlcNAc oxime-ligated to the peptide module N[Me]-O-Aoa-GFKKG] | 17000 | 0.00756 | 128 | – |
| Man-α1,2-Man-Aoa(m)-GFKKG [neo-glycoprobe: Man-α1,2-Man oxime-ligated to the peptide module N[Me]-O-Aoa-GFKKG] | 78700 | 0.013 | 1020 | ka1 (Con A): 16800 M⁻¹ s⁻¹; KA1 (Con A): 126000 M⁻¹; kd1 (Con A): 0.133 s⁻¹; ka2 (Con A): 2.88 × 10^−2 RU^−1 s^−1; kd2 (Con A): 0.0706 s⁻¹ |
| B1 | – | – | – | binding result [1]: binds |
